Assay results as given in patent US9968619B2, “Method of treating triple-negative breast cancer using thienotriazolodiazepine compounds” (ONCOETHIX GMBH, priority 2014, dated 2018).
Entries after “also recorded” stand apart in the source; their conditions may differ.

Experiments:
[1] = Pharmacokinetics and oral bioavailability in dogs; assay type: in vivo; details: male, beagle, plasma; dog; 1 mg/kg IV; solution in water:ethanol:PEG400 (60:20:20)
Experimental: Blood samples were collected from the jugular vein of each animal at 0 (pre-dose), 5, 15, and 30 minutes and 1, 2, 4, 8, 12, and 24 hours following intravenous administration and at 0 (pre-dose), 15 and 30 minutes and 1, 2, 4, 8, 12, and 24 hours following oral gavage administration. The amount of compound (1-1) present in each sample was detected using a qualified LC-MS/MS method with a lower limit of quantification of 0.5 ng/mL. The area under the plasma concentration-time curve (AUC) was determined by use of the linear trapezoidal rule up to the last measurable concentration without extrapolation of the terminal elimination phase to infinity. The elimination half-life (t1/2) was calculated by least-squares regression analysis of the terminal linear part of the log concentration-ime curve. The maximum plasma concentration (Cmax) and the time to Cmax (tmax) were derived directly from the plasma concentration data. The oral bioavailability (F) was calculated by dividing the dose normalized AUC after oral administration by the dose normalized AUC after intravenous administration and reported as percentages (%).

HCC1937 [2] = experiment: Cell counting proliferation, HCC1937; assay type: cell-based; details: Homo sapiens
MDA-MB-468 [3] = experiment: Cell counting proliferation, MDA-MB-468; assay type: cell-based; details: Homo sapiens
MDA-MB-231 [4] = experiment: Cell cycle after drug washout, MDA-MB-231; assay type: cell-based, human; details: 75 nM for 72 h, then 48 h of drug washout
Experimental: Cells were staining with propidium iodide then analyzed using a FACScan flow cytometer. […] After 72 h of treatment, control and treated cells were washed with PBS and re-incubated with compound (1-1) free medium (drug washout). As show in FIG. 14A-14C, significant differences in the percentage of compound (1-1)-treated cells in the G1, S and G2/M phases with respect to untreated controls were determined by a one-way ANOVA test (p<0.001) followed by an SNK a posteriori test. After washout, significant differences in the percentage of cells in a given cell cycle phase between control and pre-treated cells were determined with the Student t-test for independent samples with equal or different variance, as appropriate. * , × and # means significant difference between treated cells respect and controls in G1 phase (*p<0.05, **p<0.01), G2/M phase (×p<0.05, ××p<0.01) and S phase p<0.05, ## p<0.01), respectively. Each bar and vertical line represents the mean±SEM, respectively (n≥3).

HCC1937 [5] = experiment: Western blotting and RT-PCR expression, HCC1937; assay type: cell-based, human; details: 650 nM; 24, 48 and 72 h
Excerpt: (§1) Logarithmic transformation of the variable was applied before the ANOVA test if required. As shown in FIG. 16A-C, Western blots are representative of three independent experiments where each bar and vertical line represents the mean±SEM, respectively (n=3). As shown in FIG. 15D-15G, C-MYC protein and mRNA levels were unchanged by Compound (1-1) treatment in all the three cell lines.
(§2) CDKN1A (p21) mRNA levels were increased in all three cell models (p<0.001). […] Significant differences in the mRNA levels were determined by one-way ANOVA test (p<0.01) followed by SNK a posteriori test (*p<0.05, **p<0.01, […]). Logarithmic transformation of the variable was applied before the ANOVA test if required. Each bar and vertical line represents the mean±SEM, respectively (n=3). Western blots are representative of 3 independent experiments.

MDA-MB-231 [6] = experiment: Western blotting and RT-PCR expression, MDA-MB-231; assay type: cell-based, human; details: 75 nM; 24, 48 and 72 h
Excerpt: as §1, §2

MDA-MB-468 [7] = experiment: Western blotting and RT-PCR expression, MDA-MB-468; assay type: cell-based, human; details: 24, 48 and 72 h
Excerpt: as §1, §2

[8] = test system: MDA-MB-231 nude mice-derived xenografts; experiment: MDA-MB-231 xenografts in nude mice; assay type: in vivo
Experimental: In vivo assays were performed in 8-week-old female MDA-MB-231 nude mice-derived xenografts. 10×10^6 cells were injected, when tumor volume reached 100 mm^3, mice were randomized to 4 groups (n=9): 1) vehicle; 2) 50 mg/kg Compound (1-1) (BID, po); 3) 2 mg/kg of everolimus (3 time a week, ip); 4) combination Compound (1-1) and everolimus; 4 weeks treatment.
Symbols with • indicate significant differences between treatment vs. vehicle-treated mice (p<0.05). * indicates a significant difference in the tumor mass between the combination treated animals and the two single agent groups (*p<0.05, **p<0.01 and ***p<0.001). Results represent the mean±SEM (during the treatment period, n=9). Variation of animal body weight during treatment is illustrated in FIG. 18B. […] The T/C ratio was 39% after 10 days of combination treatment, with an optimal value of 21% on day 23. Compound (1-1) can be used for the treatment of TNBC, either alone or in combination with mTOR inhibitors.

MDA-MB-468 [9] = experiment: MTT proliferation assay, MDA-MB-468; details: for Emax / GI50: Homo sapiens
[10] = HCC1937, 48 h, 48 h exposure, hypoxia (0.1% O2)
[11] = HCC1937, 72 h, 72 h exposure, hypoxia (0.1% O2)
[12] = HCC1937, 72 h, 72 h exposure, normoxia
[13] = MDA-MB-468, 48 h, 48 h exposure, hypoxia (0.1% O2)
[14] = MDA-MB-468, 48 h, 48 h exposure, hypoxia (0.1% O2), * = apparent value
[15] = MDA-MB-468, 48 h, 48 h exposure, normoxia
[16] = MDA-MB-468, 72 h, 72 h exposure, hypoxia (0.1% O2)
[17] = MDA-MB-468, 72 h, 72 h exposure, normoxia
[18] = 650 nM, listed as compound (1-1), dihydrate
[19] = Compound (1-1) 50 mg/kg BID po, everolimus 2 mg/kg 3 time a week ip, 4 weeks treatment

Cmax [1]: 0.769 ng/mL | GI50 (HCC1937 [2]; [10]): > 6000 nM | GI50 (HCC1937 [2]; HCC1937, 48 h, 48 h exposure, normoxia): > 6000 nM | GI50 (HCC1937 [2]; [11]): 247 nM | GI50 (HCC1937 [2]; [12]): 262 nM | GI50 (MDA-MB-468 [3]; [14]): 60.6 nM | GI50 (MDA-MB-468 [3]; [15]): > 6000 nM | GI50 (MDA-MB-468 [3]; [16]): 251 nM | GI50 (MDA-MB-468 [3]; [17]): 304 nM | GI50 (MDA-MB-468 [9]; [14]): 258 nM | GI50 (MDA-MB-468 [9]; [15]): > 6000 nM | GI50 (MDA-MB-468 [9]; [16]): 296 nM | GI50 (MDA-MB-468 [9]; MDA-MB-468, 72 h, 72 h exposure, normoxia, * = apparent value): 448 nM
Compound: Cc1sc2c(c1C)C(c1ccc(Cl)cc1)=N[C@@H](CC(=O)Nc1ccc(O)cc1)c1nnc(C)n1-2 [Compound (1-1), 2-[(6S)-4-(4-chlorophenyl)-2,3,9-trimethyl-6H-thienol[3,2-f]-[1,2,4]triazolo[4,3-a][1,4]diazepin-6-yl]-N-(4-hydroxyphenyl)acetamide dihydrate]
Emax (HCC1937 [2]; [10]): 27% | Emax (HCC1937 [2]; HCC1937, 48 h, 48 h exposure, normoxia, percent with respect to control untreated cells): 31% | Emax (HCC1937 [2]; [11]): 54% | Emax (HCC1937 [2]; [12]): 70% | Emax (MDA-MB-468 [3]; [13]): 50% | Emax (MDA-MB-468 [3]; [15]): 30% | Emax (MDA-MB-468 [3]; [16]): 71% | Emax (MDA-MB-468 [3]; [17]): 80% | cell cycle pattern after drug washout (MDA-MB-231 [4]): recovered the control cell cycle pattern | mRNA levels of BRD3 (HCC1937 [5]): reduced | BRD2 levels (MDA-MB-231 [6]): increased | BRD2 levels (MDA-MB-468 [7]; 650 nM): increased | mRNA levels of BRD3 (MDA-MB-468 [7]; 650 nM): reduced | mRNA levels of BRD4 (MDA-MB-468 [7]; 650 nM): downregulated | c-Myc expression (mRNA and protein) (MDA-MB-468 [7]; 650 nM, dihydrate): down-regulated | c-Myc expression (mRNA and protein) (MDA-MB-468 [7]; [18]): downregulated; also recorded: downregulation | mRNA levels of n-Myc (MDA-MB-468 [7]; [18]): downregulated; also recorded: downregulation | expression levels of c-MYC and n-MYC (MDA-MB-468 [7]; RT-PCR, 500 nM): marked (p<0.05) reduction | body weight ([8]; 50 mg/kg BID po, after 19 days of treatment): without body weight loss | best T/C % [8, 19]: 40.7% | tumor mass with respect to vehicle-treated mice [8, 19]: significant (p<0.05) reduction | Emax (MDA-MB-468 [9]; [13]): 53% | Emax (MDA-MB-468 [9]; [15]): < 10% | Emax (MDA-MB-468 [9]; [16]): 77% | Emax (MDA-MB-468 [9]; [17]): 42% | effect of hypoxia on antiproliferative activity (MDA-MB-468 [9]; hypoxia (0.1% O2) vs normoxia, MTT assay and cell counting): significantly (p<0.05) increased
